# The source made the active and inactive calls. The calls are words filed in the database; no cut-off is given here.
# Tests used:
# [1] = Apparent permeability from basolateral to apical side in MDR-MDCK cells overexpressing human p-glycoprotein at 5 uM after 120 mins; format: ADME, cell-based; settings: MDCK-MDR1
# [2] = (§1) Ratio of permeability from basolateral to apical over apical to basolateral side of the MDR-MDCK cells at 5 uM after 120 mins; format: ADME, cell-based; settings: human, MDCK-MDR1
# [3] = Apparent permeability from apical to basolateral side in MDR-MDCK cells overexpressing human p-glycoprotein at 5 uM after 120 mins; format: ADME, cell-based; settings: MDCK-MDR1
# MDCK = test: as §1; format: ADME, cell-based; settings: human, mdck, 2 h, 5 µM
# HEK293 = test: Cytotoxicity against HEK293 cells; format: functional, cell-based; settings: Homo sapiens
# [4] = Stability assessed as half life in mouse plasma; format: ADME, cell-free
# [5] = Stability in PBS assessed as percentage of remaining compound after 24 hrs; format: physicochemical; settings: read-out: Activity
# [6] = Stability assessed as half life in PBS buffer; format: physicochemical
# Tubulin (Homo sapiens) = Tubulin (Homo sapiens) (UniProt P68371+Q9H4B7+P0DPH7+P68366+Q13509+Q71U36+P04350+Q3ZCM7+P07437+P68363+Q9BQE3+Q6PEY2+Q13885+Q9BVA1+Q9BUF5); test: Effect on tubulin polymerization by microtubule polymerization assay; format: protein-complex assay
# Homo sapiens = organism: Homo sapiens; test: Stability assessed as half life in human plasma
Structure (SMILES),"Papp B→A at 2 h, 5 µM [1]","efflux ratio at 2 h, 5 µM [2]","Papp A→B at 2 h, 5 µM [3]",Ratio (MDCK),IC50 (HEK293),half-life [4],remaining at 24 h [5],half-life [6],Activity (Tubulin (Homo sapiens)),half-life (Homo sapiens)
CC(=O)O[C@@]12CO[C@@H]1C[C@H](O)[C@@]1(C)C(=O)[C@H](OC(=O)N3CCOCC3)C3=C(C)[C@@H](OC(=O)[C@H](O)[C@@H](NC(=O)c4ccccc4)c4ccccc4)C[C@@](O)([C@@H](OC(=O)c4ccccc4)[C@H]21)C3(C)C,22.6 ×10⁻⁶ cm/s,133,0.17 ×10⁻⁶ cm/s,,,,,,,
CC(=O)O[C@@]12CO[C@@H]1C[C@H](O)[C@@]1(C)C(=O)[C@H](OC(=O)N[C@H]3CCOC3=O)C3=C(C)[C@@H](OC(=O)[C@H](O)[C@@H](NC(=O)c4ccccc4)c4ccccc4)C[C@@](O)([C@@H](OC(=O)c4ccccc4)[C@H]21)C3(C)C,0.21 ×10⁻⁶ cm/s,,< 0.07 ×10⁻⁶ cm/s,> 3,1900 nM,,,,,
CC(=O)O[C@@]12CO[C@@H]1C[C@H](O)[C@@]1(C)C(=O)[C@H](OC(=O)NCC(=O)N(C)C)C3=C(C)[C@@H](OC(=O)[C@H](O)[C@@H](NC(=O)c4ccccc4)c4ccccc4)C[C@@](O)([C@@H](OC(=O)c4ccccc4)[C@H]21)C3(C)C,0.8 ×10⁻⁶ cm/s,8.8,0.09 ×10⁻⁶ cm/s,,1000 nM,,,,,
CC(=O)O[C@@]12CO[C@@H]1C[C@H](O)[C@@]1(C)C(=O)[C@H](OC(=O)N(C)[C@H](C)[C@H](O)c3ccccc3)C3=C(C)[C@@H](OC(=O)[C@H](O)[C@@H](NC(=O)c4ccccc4)c4ccccc4)C[C@@](O)([C@@H](OC(=O)c4ccccc4)[C@H]21)C3(C)C,25.3 ×10⁻⁶ cm/s,,< 0.2 ×10⁻⁶ cm/s,> 127,24 nM,,,,,
CC(=O)O[C@@]12CO[C@@H]1C[C@H](O)[C@@]1(C)C(=O)[C@H](OC(=O)N(C)CC(=O)O)C3=C(C)[C@@H](OC(=O)[C@H](O)[C@@H](NC(=O)c4ccccc4)c4ccccc4)C[C@@](O)([C@@H](OC(=O)c4ccccc4)[C@H]21)C3(C)C,0.05 ×10⁻⁶ cm/s,,0.06 ×10⁻⁶ cm/s,0.9,1800 nM,,,,,
CC(=O)O[C@H]1C(=O)[C@]2(C)[C@@H](OC(=O)NCC(=O)O)C[C@H]3OC[C@@]3(OC(C)=O)[C@H]2[C@H](OC(=O)c2ccccc2)[C@]2(O)C[C@H](OC(=O)[C@H](O)[C@@H](NC(=O)c3ccccc3)c3ccccc3)C(C)=C1C2(C)C,0.06 ×10⁻⁶ cm/s,,0.07 ×10⁻⁶ cm/s,0.9,> 25000 nM,,,,,
CC(=O)O[C@H]1C(=O)[C@@]2(C)[C@H]([C@H](OC(=O)c3ccccc3)[C@]3(O)C[C@H](OC(=O)[C@H](O)[C@@H](NC(=O)c4ccccc4)c4ccccc4)C(C)=C1C3(C)C)[C@]1(OC(C)=O)CO[C@@H]1C[C@@H]2O [PACLITAXEL],28.5 ×10⁻⁶ cm/s,,0.2 ×10⁻⁶ cm/s,,10 nM,1810 min,85.2%,> 2.5 days,inactive,
CC(=O)O[C@@]12CO[C@@H]1C[C@H](O)[C@@]1(C)C(=O)[C@H](OC(=O)N(C)C(C)(C)C(=O)O)C3=C(C)[C@@H](OC(=O)[C@H](O)[C@@H](NC(=O)c4ccccc4)c4ccccc4)C[C@@](O)([C@@H](OC(=O)c4ccccc4)[C@H]21)C3(C)C,0.05 ×10⁻⁶ cm/s,,0.05 ×10⁻⁶ cm/s,1,1000 nM,,,,,
COC(=O)CNC(=O)O[C@H]1C(=O)[C@@]2(C)[C@H]([C@H](OC(=O)c3ccccc3)[C@]3(O)C[C@H](OC(=O)[C@H](O)[C@@H](NC(=O)c4ccccc4)c4ccccc4)C(C)=C1C3(C)C)[C@]1(OC(C)=O)CO[C@@H]1C[C@@H]2O,3.36 ×10⁻⁶ cm/s,,< 0.62 ×10⁻⁶ cm/s,> 5.4,60 nM,,,,,
CC(=O)O[C@@]12CO[C@@H]1C[C@H](O)[C@@]1(C)C(=O)[C@H](OC(=O)N[C@H](C)C(=O)O)C3=C(C)[C@@H](OC(=O)[C@H](O)[C@@H](NC(=O)c4ccccc4)c4ccccc4)C[C@@](O)([C@@H](OC(=O)c4ccccc4)[C@H]21)C3(C)C,< 0.63 ×10⁻⁶ cm/s,,< 0.63 ×10⁻⁶ cm/s,,2500 nM,,,,,
CC(=O)O[C@@]12CO[C@@H]1C[C@H](O)[C@@]1(C)C(=O)[C@H](OC(=O)N[C@@H](C)C(=O)O)C3=C(C)[C@@H](OC(=O)[C@H](O)[C@@H](NC(=O)c4ccccc4)c4ccccc4)C[C@@](O)([C@@H](OC(=O)c4ccccc4)[C@H]21)C3(C)C,< 0.06 ×10⁻⁶ cm/s,,< 0.06 ×10⁻⁶ cm/s,,3900 nM,,,,,
CC(=O)O[C@@]12CO[C@@H]1C[C@H](O)[C@@]1(C)C(=O)[C@H](OC(=O)NCCO)C3=C(C)[C@@H](OC(=O)[C@H](O)[C@@H](NC(=O)c4ccccc4)c4ccccc4)C[C@@](O)([C@@H](OC(=O)c4ccccc4)[C@H]21)C3(C)C,< 0.21 ×10⁻⁶ cm/s,,< 0.21 ×10⁻⁶ cm/s,,700 nM,,,,,
CC(=O)O[C@@]12CO[C@@H]1C[C@H](O)[C@@]1(C)C(=O)[C@H](OC(=O)NCC(=O)O)C3=C(C)[C@@H](OC(=O)[C@H](O)[C@@H](NC(=O)OC(C)(C)C)c4ccccc4)C[C@@](O)([C@@H](OC(=O)c4ccccc4)[C@H]21)C3(C)C,< 0.2 ×10⁻⁶ cm/s,,< 0.2 ×10⁻⁶ cm/s,,1700 nM,,,,,
CC(=O)O[C@@]12CO[C@@H]1C[C@H](O)[C@@]1(C)C(=O)[C@H](O)C3=C(C)[C@@H](OC(=O)[C@H](O)[C@@H](NC(=O)c4ccccc4)c4ccccc4)C[C@@](O)([C@@H](OC(=O)c4ccccc4)[C@H]21)C3(C)C,5.17 ×10⁻⁶ cm/s,39,0.13 ×10⁻⁶ cm/s,,76 nM,,,,,
CC(=O)O[C@@]12CO[C@@H]1C[C@H](O)[C@@]1(C)C(=O)[C@H](OC(=O)NCC(=O)O)C3=C(C)[C@@H](OC(=O)[C@H](O)[C@@H](NC(=O)c4ccccc4)c4ccccc4)C[C@@](O)([C@@H](OC(=O)c4ccccc4)[C@H]21)C3(C)C,0.05 ×10⁻⁶ cm/s,0.6,0.09 ×10⁻⁶ cm/s,,8300 nM,1880 min,91.6%,> 2.5 days,,3120 min
CC(=O)O[C@@]12CO[C@@H]1C[C@H](O)[C@@]1(C)C(=O)[C@H](O)C3=C(C)[C@@H](OC(=O)[C@H](O)[C@@H](NC(=O)OC(C)(C)C)c4ccccc4)C[C@@](O)([C@@H](OC(=O)c4ccccc4)[C@H]21)C3(C)C.O.O.O [DOCETAXEL],15.5 ×10⁻⁶ cm/s,,< 0.62 ×10⁻⁶ cm/s,> 25,27 nM,,,,inactive,
CC(=O)O[C@@]12CO[C@@H]1C[C@H](O)[C@@]1(C)C(=O)[C@H](OC(=O)NCCC(=O)O)C3=C(C)[C@@H](OC(=O)[C@H](O)[C@@H](NC(=O)c4ccccc4)c4ccccc4)C[C@@](O)([C@@H](OC(=O)c4ccccc4)[C@H]21)C3(C)C,< 0.64 ×10⁻⁶ cm/s,,< 0.64 ×10⁻⁶ cm/s,,7400 nM,,,,,
CC(=O)O[C@@]12CO[C@@H]1C[C@H](O)[C@@]1(C)C(=O)[C@H](OC(=O)CCC(=O)O)C3=C(C)[C@@H](OC(=O)[C@H](O)[C@@H](NC(=O)c4ccccc4)c4ccccc4)C[C@@](O)([C@@H](OC(=O)c4ccccc4)[C@H]21)C3(C)C,0.1 ×10⁻⁶ cm/s,,0.08 ×10⁻⁶ cm/s,1.3,4700 nM,1170 min,75.1%,> 2.5 days,,918 min

# Reference: ChEMBL document CHEMBL1148876 (Bioorg Med Chem Lett, 2007)
